Measurements from patent US10294202B2, “Pyrrolidinones as herbicides” (FMC Corporation, priority 2013, dated 2019).

How the values were obtained:
barnyardgrass [1] = assay: Test B flooded paddy test; format: in vivo, Echinochloa crus-galli; settings: Flood, scale of 0 to 100 where 0 is no effect and 100 is complete control
Summary of the method: (§1)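 Plants grown to 2-leaf stage; pots flooded 3 cm above soil and compound applied directly into paddy water, depth held throughout. Visual rating against untreated controls after 13 to 15 days in greenhouse, 0 (no effect) to 100 (complete control).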

ducksalad = assay: Test B flooded paddy test; format: in vivo, Heteranthera limosa; settings: Flood, scale of 0 to 100 where 0 is no effect and 100 is complete control
Summary of the method: as §1

wheat = assay: Test A pre-/postemergence herbicide test; format: in vivo, Triticum aestivum
Summary of the method: (§2)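 Formulated compound (non-phytotoxic solvent, surfactant) sprayed pre- onto soil of seeded loam/sand pots or post- onto seedlings at 1–2 leaves; ~10 d greenhouse; 0–100 visual control rating versus untreated.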

ryegrass, Italian = assay: Test A pre-/postemergence herbicide test; format: in vivo, Lolium multiflorum
Summary of the method: as §2

blackgrass = assay: Test A postemergence herbicide test; format: in vivo, Alopecurus myosuroides
Summary of the method: (§3)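 Injury was rated visually about 10 days after treatment on a 0 (no effect) to 100 (complete control) scale, compared with untreated plants. Test chemicals were sprayed postemergence onto greenhouse plants 2–10 cm high at one to two leaves, grown in a loam–sand blend.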

corn = assay: Test A pre-/postemergence herbicide test; format: in vivo, Zea mays
Summary of the method: as §2

rice = assay: Test B flooded paddy test; format: in vivo, Oryza sativa; settings: Flood, scale of 0 to 100 where 0 is no effect and 100 is complete control
Summary of the method: as §1

pigweed = assay: Test A pre-/postemergence herbicide test; format: in vivo, Amaranthus retroflexus
Summary of the method: as §2

ragweed = assay: Test A pre-/postemergence herbicide test; format: in vivo, Ambrosia elatior
Summary of the method: as §2

galium = assay: Test A postemergence herbicide test; format: in vivo, Galium aparine
Summary of the method: as §3

barnyardgrass [2] = assay: Test A pre-/postemergence herbicide test; format: in vivo, Echinochloa crus-galli
Summary of the method: as §2

sedge, umbrella = assay: Test B flooded paddy test; format: in vivo, Cyperus difformis; settings: Flood, scale of 0 to 100 where 0 is no effect and 100 is complete control
Summary of the method: as §1

kochia = assay: Test A pre-/postemergence herbicide test; format: in vivo, Kochia scoparia
Summary of the method: as §2

giant foxtail = assay: Test A pre-/postemergence herbicide test; format: in vivo, Setaria faberii
Summary of the method: as §2

morningglory = assay: Test A pre-/postemergence herbicide test; format: in vivo, Ipomoea spp.
Summary of the method: as §2

crabgrass, large = assay: Test A pre-/postemergence herbicide test; format: in vivo, Digitaria sanguinalis
Summary of the method: as §2

velvetleaf = assay: Test A pre-/postemergence herbicide test; format: in vivo, Abutilon theophrasti
Summary of the method: as §2

[3] = Postemergence, 125 g ai/ha, visual rating on 0 to 100 scale (0 no effect, 100 complete control), approx. 10 days
[4] = Postemergence, 500 g ai/ha, 0 to 100 scale (0 no effect, 100 complete control)
[5] = Preemergence, 125 g ai/ha, 0 to 100 scale where 0 is no effect and 100 is complete control
[6] = Preemergence, 500 g ai/ha, visual rating on 0 to 100 scale (0 no effect, 100 complete control)
[7] = 125 g ai/ha, visual rating on 0 to 100 scale (0 no effect, 100 complete control), approx. 10 days
[8] = 500 g ai/ha, 0 to 100 scale (0 no effect, 100 complete control)
[9] = preemergence, 500 g ai/ha, 0 to 100 scale, 0 is no effect and 100 is complete control
[10] = Postemergence, 125 g ai/ha, 0 to 100 scale, 0 no effect, 100 complete control
[11] = Preemergence, 125 g ai/ha, visual rating on 0 to 100 scale (0 no effect, 100 complete control)
[12] = preemergence, 500 g ai/ha, 0 to 100 scale
[13] = Postemergence, 125 g ai/ha, 0 to 100 scale, 0 is no effect, 100 is complete control

O=C1NCC(c2cc3ccccc3s2)C1C(=O)Nc1ccccc1F (centres unmarked) [Compound 295]
Plant response rating, Barnyardgrass (barnyardgrass [1]; 500 g ai/ha): 30 | Plant response rating, Ducksalad (ducksalad; 500 g ai/ha): 40 | Plant response rating, Wheat (wheat; [3]): 0 | Plant response rating, Wheat (wheat; [4]): 0 | Plant response rating, Ryegrass, Italian (ryegrass, Italian; [3]): 0 | Plant response rating, Ryegrass, Italian (ryegrass, Italian; [4]): 0 | Plant response rating, Ryegrass, Italian (ryegrass, Italian; [5]): 0 | Ryegrass, Italian plant response rating (ryegrass, Italian; [6]): 0 | Plant response rating, Blackgrass (blackgrass; [7]): 0 | Plant response rating, Blackgrass (blackgrass; [8]): 0 | Plant response rating, Corn (corn; [3]): 0 | Plant response rating, Corn (corn; [4]): 0 | Plant response rating, Rice (rice; 500 g ai/ha): 0 | Plant response rating, Pigweed (pigweed; [3]): 0 | Plant response rating, Pigweed (pigweed; [4]): 0 | Plant response rating, Pigweed (pigweed; [5]): 0 | Plant response rating, Pigweed (pigweed; [9]): 0 | Plant response rating, Ragweed (ragweed; [3]): 0 | Plant response rating, Ragweed (ragweed; [4]): 0 | Plant response rating, Ragweed (ragweed; [5]): 0 | Plant response rating, Ragweed (ragweed; [9]): 0 | Plant response rating, Galium (galium; [7]): 0 | Plant response rating, Galium (galium; [8]): 10 | Plant response rating, Barnyardgrass (barnyardgrass [2]; [3]): 0 | Plant response rating, Barnyardgrass (barnyardgrass [2]; [4]): 50 | Plant response rating, Barnyardgrass (barnyardgrass [2]; [5]): 0 | Plant response rating, Barnyardgrass (barnyardgrass [2]; [9]): 70 | Plant response rating, Sedge, Umbrella (sedge, umbrella; 500 g ai/ha): 0 | Plant response rating, Kochia (kochia; [3]): 0 | Plant response rating, Kochia (kochia; [4]): 0 | Plant response rating, Kochia (kochia; [5]): 0 | Plant response rating, Kochia (kochia; [9]): 0 | Plant response rating, Foxtail, Giant (giant foxtail; [3]): 0 | Plant response rating, Foxtail, Giant (giant foxtail; [4]): 0 | Plant response rating, Foxtail, Giant (giant foxtail; [5]): 0 | Plant response rating, Foxtail, Giant (giant foxtail; [9]): 20

O=C1NCC(c2cccc(-n3ccc(C(F)(F)F)n3)c2)C1C(=O)Nc1ccccc1C(F)(F)F (centres unmarked) [Compound 329]
Plant response rating, Barnyardgrass (barnyardgrass [1]; 500 g ai/ha): 0 | Plant response rating, Ducksalad (ducksalad; 500 g ai/ha): 0 | Plant response rating, Wheat (wheat; [3]): 0 | Plant response rating, Wheat (wheat; [4]): 0 | Plant response rating, Ryegrass, Italian (ryegrass, Italian; [3]): 0 | Plant response rating, Ryegrass, Italian (ryegrass, Italian; [4]): 0 | Plant response rating, Ryegrass, Italian (ryegrass, Italian; [5]): 0 | Ryegrass, Italian plant response rating (ryegrass, Italian; [6]): 0 | Plant response rating, Blackgrass (blackgrass; [7]): 0 | Plant response rating, Blackgrass (blackgrass; [8]): 0 | Plant response rating, Corn (corn; [3]): 0 | Plant response rating, Corn (corn; [4]): 0 | Plant response rating, Rice (rice; 500 g ai/ha): 0 | Plant response rating, Pigweed (pigweed; [3]): 0 | Plant response rating, Pigweed (pigweed; [4]): 0 | Plant response rating, Pigweed (pigweed; [5]): 0 | Pigweed plant response rating (pigweed; [6]): 0 | Plant response rating, Ragweed (ragweed; [3]): 0 | Plant response rating, Ragweed (ragweed; [4]): 0 | Plant response rating, Ragweed (ragweed; [5]): 0 | Ragweed plant response rating (ragweed; [6]): 0 | Plant response rating, Galium (galium; [7]): 0 | Plant response rating, Galium (galium; [8]): 0 | Plant response rating, Barnyardgrass (barnyardgrass [2]; [3]): 0 | Plant response rating, Barnyardgrass (barnyardgrass [2]; [4]): 0 | Plant response rating, Barnyardgrass (barnyardgrass [2]; [5]): 0 | Barnyardgrass plant response rating (barnyardgrass [2]; [6]): 0 | Plant response rating, Sedge, Umbrella (sedge, umbrella; 500 g ai/ha): 0 | Plant response rating, Kochia (kochia; [3]): 0 | Plant response rating, Kochia (kochia; [4]): 0 | Plant response rating, Kochia (kochia; [5]): 0 | Kochia plant response rating (kochia; [6]): 0 | Plant response rating, Foxtail, Giant (giant foxtail; [3]): 0 | Plant response rating, Foxtail, Giant (giant foxtail; [4]): 30 | Plant response rating, Foxtail, Giant (giant foxtail; [5]): 0 | Foxtail, Giant plant response rating (giant foxtail; [6]): 60

O=C1NCC(c2ccc(F)c(F)c2)C1C(=O)Nc1ccccc1Br (centres unmarked) [Compound 55]
Plant response rating, Barnyardgrass (barnyardgrass [1]; 250 g ai/ha): 50 | Plant response rating, Morningglory (morningglory; [10]): 0 | Plant response rating, Morningglory (morningglory; [4]): 0 | Morningglory plant response rating (morningglory; [11]): 0 | Plant response rating, Morningglory (morningglory; [12]): 0 | Plant response rating, Ducksalad (ducksalad; 250 g ai/ha): 75 | Plant response rating, Wheat (wheat; [10]): 0 | Plant response rating, Wheat (wheat; [4]): 0 | Wheat plant response rating (wheat; [11]): 0 | Plant response rating, Wheat (wheat; [12]): 0 | Plant response rating, Crabgrass, Large (crabgrass, large; [10]): 80 | Plant response rating, Crabgrass, Large (crabgrass, large; [4]): 80 | Crabgrass, Large plant response rating (crabgrass, large; [11]): 80 | Plant response rating, Crabgrass, Large (crabgrass, large; [12]): 90 | Plant response rating, Corn (corn; [10]): 0 | Plant response rating, Corn (corn; [4]): 0 | Corn plant response rating (corn; [11]): 0 | Plant response rating, Corn (corn; [12]): 0 | Plant response rating, Velvetleaf (velvetleaf; [10]): 0 | Plant response rating, Velvetleaf (velvetleaf; [4]): 0 | Velvetleaf plant response rating (velvetleaf; [11]): 0 | Plant response rating, Velvetleaf (velvetleaf; [12]): 0 | Plant response rating, Rice (rice; 250 g ai/ha): 50 | Plant response rating, Pigweed (pigweed; [10]): 0 | Plant response rating, Pigweed (pigweed; [4]): 0 | Pigweed plant response rating (pigweed; [11]): 0 | Plant response rating, Pigweed (pigweed; [12]): 0 | Plant response rating, Barnyardgrass (barnyardgrass [2]; [10]): 30 | Plant response rating, Barnyardgrass (barnyardgrass [2]; [4]): 90 | Barnyardgrass plant response rating (barnyardgrass [2]; [11]): 20 | Plant response rating, Barnyardgrass (barnyardgrass [2]; preemergence, 500 g ai/ha, 0 to 100 scale (0 no effect, 100 complete control)): 80 | Plant response rating, Sedge, Umbrella (sedge, umbrella; 250 g ai/ha): 70 | Plant response rating, Foxtail, Giant (giant foxtail; [10]): 70 | Plant response rating, Foxtail, Giant (giant foxtail; [4]): 80 | Foxtail, Giant plant response rating (giant foxtail; [11]): 70 | Plant response rating, Foxtail, Giant (giant foxtail; [12]): 90

O=C1NCC(c2ccc(C(F)(F)F)nc2)C1C(=O)Nc1ccccc1C(F)(F)F (racemic) [Compound 264]
Plant response rating, Barnyardgrass (barnyardgrass [1]; 1000 g ai/ha): 0 | Plant response rating, Morningglory (morningglory; [4]): 0 | Plant response rating, Morningglory (morningglory; [5]): 0 | Plant response rating, Morningglory (morningglory; [9]): 0 | Plant response rating, Ducksalad (ducksalad; 1000 g ai/ha): 100 | Plant response rating, Wheat (wheat; [4]): 0 | Plant response rating, Wheat (wheat; [5]): 0 | Plant response rating, Wheat (wheat; [9]): 0 | Plant response rating, Crabgrass, Large (crabgrass, large; [13]): 80 | Plant response rating, Crabgrass, Large (crabgrass, large; [4]): 90 | Plant response rating, Crabgrass, Large (crabgrass, large; [5]): 100 | Plant response rating, Crabgrass, Large (crabgrass, large; [9]): 100 | Plant response rating, Corn (corn; [13]): 0 | Plant response rating, Corn (corn; [4]): 0 | Plant response rating, Corn (corn; [5]): 0 | Plant response rating, Corn (corn; [9]): 0 | Plant response rating, Velvetleaf (velvetleaf; [4]): 30 | Plant response rating, Velvetleaf (velvetleaf; [5]): 0 | Plant response rating, Velvetleaf (velvetleaf; [9]): 0 | Plant response rating, Rice (rice; 1000 g ai/ha): 0 | Plant response rating, Pigweed (pigweed; [4]): 60 | Plant response rating, Pigweed (pigweed; [5]): 50 | Plant response rating, Pigweed (pigweed; [9]): 80 | Plant response rating, Barnyardgrass (barnyardgrass [2]; [13]): 30 | Plant response rating, Barnyardgrass (barnyardgrass [2]; [4]): 80 | Plant response rating, Barnyardgrass (barnyardgrass [2]; [5]): 50 | Plant response rating, Barnyardgrass (barnyardgrass [2]; [9]): 90 | Plant response rating, Sedge, Umbrella (sedge, umbrella; 1000 g ai/ha): 0 | Plant response rating, Foxtail, Giant (giant foxtail; [13]): 60 | Plant response rating, Foxtail, Giant (giant foxtail; [4]): 80 | Plant response rating, Foxtail, Giant (giant foxtail; [5]): 80 | Plant response rating, Foxtail, Giant (giant foxtail; [9]): 90
